Results as given in patent US20250230193A1, “CYCLIC COMPOUND HAVING SELECTIVE KRAS INHIBITORY EFFECT ON HRAS AND NRAS” (CHUGAI SEIYAKU KABUSHIKI KAISHA, priority 2022, published 2025).
Where a SMILES comes first, the peptide text is derived from it. Bridges are numbered along the chain shown (N, C = ends). [ ]: non-standard residue; d: D form. hPhe(3,5-F2-4-CF3) = N[C@@H](CCc1cc(F)c(C(F)(F)F)c(F)c1)C(=O)O; NPrPhe(4-CF3) = CCCN[C@@H](Cc1ccc(C(F)(F)F)cc1)C(=O)O; NMeGly(cPent) = CN[C@H](C(=O)O)C1CCCC1; αMeI = CC[C@H](C)[C@](C)(N)C(=O)O; NMeD = CN[C@@H](CC(=O)O)C(=O)O; NMeL = CN[C@@H](CC(C)C)C(=O)O; Sar = CNCC(=O)O

What was measured:
[1] = biological target: GDP-bound HRAS wild-type protein (Homo sapiens, UniProt P01112); assay: Binding to HRAS by surface plasmon resonance (SPR), Single Cycle Kinetics
[2] = biological target: GDP-bound NRAS wild-type protein (Homo sapiens, UniProt P01111); assay: Binding to NRAS by surface plasmon resonance (SPR), Single Cycle Kinetics
[3] = KD ratio, GDP-bound HRAS wild-type vs GDP-bound KRAS wild-type, SPR
[4] = KD ratio, GDP-bound NRAS wild-type vs GDP-bound KRAS wild-type, SPR
[5] = SPR, GDP-bound wild-type proteins

Chain of GDP-bound HRAS wild-type protein (P01112 whole entry): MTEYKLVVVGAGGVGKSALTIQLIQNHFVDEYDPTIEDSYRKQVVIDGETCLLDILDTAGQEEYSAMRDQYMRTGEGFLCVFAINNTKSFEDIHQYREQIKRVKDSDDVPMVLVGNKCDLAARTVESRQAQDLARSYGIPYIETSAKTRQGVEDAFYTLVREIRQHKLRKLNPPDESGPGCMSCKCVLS
Chain of GDP-bound NRAS wild-type protein (P01111 whole entry): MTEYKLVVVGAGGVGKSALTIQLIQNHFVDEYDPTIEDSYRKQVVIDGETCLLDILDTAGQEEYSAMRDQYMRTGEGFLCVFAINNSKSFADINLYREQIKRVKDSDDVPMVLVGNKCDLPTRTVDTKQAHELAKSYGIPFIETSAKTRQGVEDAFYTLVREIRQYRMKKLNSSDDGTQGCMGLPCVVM

Structure (SMILES): CCOC[C@H]1C(=O)N[C@@H]([C@@H](C)CC)C(=O)N(C)CC(=O)N(C)[C@H]2C/C=C\CCN(C2=O)[C@@H](Cc2ccc(C(F)(F)F)cc2)C(=O)N(C)CC(=O)N[C@@H](CCc2cc(F)c(C(F)(F)F)c(F)c2)C(=O)N2C[C@H](OCC)C[C@H]2C(=O)NC2(CC(C)(C)C2)C(=O)N(C)[C@@H](C2CCCC2)C(=O)N(C)[C@H](C(=O)N(C)CC)CC(=O)N1C [PP2032]
- HRAS/KRAS (ratio of KD value for HRAS to KD value for KRAS) [1, 3]: B (a compound having 3 or more and less than 10 is denoted as B)
- NRAS/KRAS (ratio of KD value for NRAS to KD value for KRAS) [2, 4]: A (a compound having 10 or more and less than 20 is denoted as A)

Structure (SMILES): CCC[C@H]1C(=O)N[C@@H]([C@@H](C)CC)C(=O)N(C)CC(=O)N(C)[C@H]2C/C=C\CCN(C2=O)[C@@H](Cc2ccc(C(F)(F)F)cc2)C(=O)N(C)CC(=O)N[C@@H](CCc2ccc(Cl)c(Cl)c2)C(=O)N2CCCCC[C@H]2C(=O)NC2(CC(C)(C)C2)C(=O)N(C)[C@@H](C(CC)CC)C(=O)N(C)[C@H](C(=O)N(C)C)CC(=O)N1C [PP3031]
- HRAS/KRAS (ratio of KD value with respect to GDP-bound HRAS wild-type protein to KD value with respect to KRAS) [1, 5]: A (a compound having 10 or more and less than 20 is denoted as A)
- NRAS/KRAS (ratio of KD value with respect to GDP-bound NRAS wild-type protein to KD value with respect to KRAS) [2, 5]: AA (a compound having 20 or more is denoted as AA)

Structure (SMILES): CCO[C@@H]1C[C@H]2C(=O)NC3(CC(C)(C)C3)C(=O)N(C)[C@@H](CC3CCC3)C(=O)N(C)[C@H](C(=O)N(C)C)CC(=O)N(C)[C@@H](COC)C(=O)N[C@@H]([C@@H](C)CC)C(=O)N(C3CC3)CC(=O)N(C)[C@H]3C/C=C\CCN(C3=O)[C@@H](Cc3ccc(C(F)(F)F)cc3)C(=O)N(C)CC(=O)N[C@@H](CCc3cc(F)c(C(F)(F)F)c(F)c3)C(=O)N2C1 [PP2769]
- HRAS/KRAS (ratio of KD value with respect to GDP-bound HRAS wild-type protein to KD value with respect to KRAS) ([1]; class symbols): A (a compound having 10 or more and less than 20 is denoted as A)
- NRAS/KRAS (ratio of KD value with respect to GDP-bound NRAS wild-type protein to KD value with respect to KRAS) ([2]; class symbols): AA (a compound having 20 or more is denoted as AA)

Structure (SMILES): C=CCCC[C@H]1C(=O)N[C@@H]([C@@H](C)CC)C(=O)N(C)CC(=O)N(C)[C@H]2CCCCCN(C2=O)[C@@H](Cc2ccc(C(F)(F)F)cc2)C(=O)N(C)CC(=O)N[C@@H](CCc2cc(F)c(C(F)(F)F)c(F)c2)C(=O)N2C[C@H](OCC)C[C@H]2C(=O)N[C@](C)(CC=C)C(=O)N(C)[C@@H](C2CCCC2)C(=O)N(C)[C@H](C(=O)N2CCOCC2)CC(=O)N1C [PP0880]
- HRAS/KRAS (ratio of KD value with respect to HRAS to KD value with respect to KRAS) [1, 3]: B (a compound having 3 or more and less than 10 is denoted as B)
- NRAS/KRAS (ratio of KD value with respect to NRAS to KD value with respect to KRAS) [2, 4]: B (a compound having 3 or more and less than 10 is denoted as B)

Structure (SMILES): CCC[C@H]1C(=O)N[C@@H]([C@@H](C)CC)C(=O)N2CCC[C@H]2C(=O)N(C)[C@H]2C/C=C\CCN(C2=O)[C@@H](Cc2ccc(C(F)F)cc2)C(=O)N(C)CC(=O)N[C@@H](CCc2ccc(Cl)c(Cl)c2)C(=O)N2C[C@H](OC(C)C)C[C@H]2C(=O)NC2(CC(C)(C)C2)C(=O)N(C)[C@@H](C(CC)CC)C(=O)N(C)[C@H](C(=O)N(C)C)CC(=O)N1C [PP2640]
- HRAS/KRAS (ratio of KD value with respect to GDP-bound HRAS wild-type protein to KD value with respect to KRAS) ([1]; class symbols): A (a compound having 10 or more and less than 20 is denoted as A)
- NRAS/KRAS (ratio of KD value with respect to GDP-bound NRAS wild-type protein to KD value with respect to KRAS) ([2]; class symbols): AA (a compound having 20 or more is denoted as AA)

Structure (SMILES): C=CCN1CC(=O)N(C)[C@H]2C/C=C\CCN(C2=O)[C@@H](Cc2ccc(C)cc2)C(=O)N(C)CC(=O)N[C@@H](CCc2cc(F)c(C(F)(F)F)c(F)c2)C(=O)N2C[C@H](OCC)C[C@H]2C(=O)NC2(CC(C)(C)C2)C(=O)N(C)[C@@H](C2CCCC2)C(=O)N(C)[C@H](C(=O)N(C)C)CC(=O)N(C)[C@@H](CC(C)C)C(=O)N[C@@H]([C@@H](C)CC)C1=O [PP2050]
- HRAS/KRAS (ratio of KD value with respect to HRAS to KD value with respect to KRAS) ([1]; SPR, GDP-bound HRAS wild-type vs GDP-bound KRAS wild-type): A (a compound having 10 or more and less than 20 is denoted as A)
- NRAS/KRAS (ratio of KD value with respect to NRAS to KD value with respect to KRAS) ([2]; SPR, GDP-bound NRAS wild-type vs GDP-bound KRAS wild-type): A (a compound having 10 or more and less than 20 is denoted as A)

Structure (SMILES): CCCN1C(=O)CN(C)C(=O)CN(C)C(=O)[C@H]([C@@H](C)CC)NC(=O)[C@H](CC(C)C)N(C)C(=O)C[C@@H](C(=O)N(C)C)N(C)C(=O)[C@H](C2CCCC2)N(C)C(=O)[C@](C)([C@@H](C)CC)NC(=O)[C@@H]2CCCN2C(=O)[C@H](CCc2cc(F)c(C(F)(F)F)c(F)c2)NC(=O)CN(C)C(=O)[C@@H]1Cc1ccc(C(F)(F)F)cc1 [PP0736] ([NMeL]I[Sar][Sar][NPrPhe(4-CF3)][Sar][hPhe(3,5-F2-4-CF3)]P[αMeI][NMeGly(cPent)][NMeD]-NMe2; lactam N-11)
- HRAS/KRAS (ratio of KD value with respect to GDP-bound HRAS wild-type protein to KD value with respect to KRAS) ([1]; SPR): C (A compound having a KD ratio of 0.1 or more and less than 3 is denoted as C)
- NRAS/KRAS (ratio of KD value with respect to GDP-bound NRAS wild-type protein to KD value with respect to KRAS) ([2]; SPR): B (a compound having 3 or more and less than 10 is denoted as B)

Structure (SMILES): CCO[C@@H]1C[C@H]2C(=O)NC3(CCC3)C(=O)N(C)[C@@H](C3CCCC3)C(=O)N(CC)[C@H](C(=O)N3CCOCC3)CC(=O)N(C)[C@@H](CC(C)C)C(=O)N[C@@H]([C@@H](C)CC)C(=O)N(C)CC(=O)N(C)[C@H]3CCCCCN(C3=O)[C@@H](Cc3ccc(C(F)(F)F)cc3)C(=O)N(C)CC(=O)N[C@@H](CCc3cc(F)c(C(F)(F)F)c(F)c3)C(=O)N2C1 [PP0638]
- HRAS/KRAS (ratio of KD value with respect to GDP-bound HRAS wild-type protein to KD value with respect to KRAS) ([1]; SPR): B (a compound having 3 or more and less than 10 is denoted as B)
- NRAS/KRAS (ratio of KD value with respect to GDP-bound NRAS wild-type protein to KD value with respect to KRAS) ([2]; SPR): B (a compound having 3 or more and less than 10 is denoted as B)
